Blank lines part the entries; values can stand above or below the molecule they belong to.
Assays:
[1] = target: T1, Av-DHDPS (Trichormus variabilis, UniProt Q3M723); test: DHDPS-DHDPR coupled assay, dose response, four-parameter logistic; assay type: biochemical
T1 construct: gene dapA; synthetic codon-optimised dapA in pRSET-A, His-tagged, E. coli BL21-DE3 pLysS, IMAC; homotetramer 147 kDa; monomer of 297 residues in crystal; active-site Lys164
Source text: DHDPS-DHDPR coupled assay, dose response, four-parameter logistic on Av-DHDPS

[2] = target: T2, Vv-DHDPS (Vitis vinifera, UniProt D7U7T8); test: as above; assay type: biochemical; settings: 30 °C; allosteric feedback inhibitor; control enzyme
T2 construct: gene VIT_15s0048g00750; control enzyme; construct not described here
T2 sequence (D7U7T8 40-365 limits assumed): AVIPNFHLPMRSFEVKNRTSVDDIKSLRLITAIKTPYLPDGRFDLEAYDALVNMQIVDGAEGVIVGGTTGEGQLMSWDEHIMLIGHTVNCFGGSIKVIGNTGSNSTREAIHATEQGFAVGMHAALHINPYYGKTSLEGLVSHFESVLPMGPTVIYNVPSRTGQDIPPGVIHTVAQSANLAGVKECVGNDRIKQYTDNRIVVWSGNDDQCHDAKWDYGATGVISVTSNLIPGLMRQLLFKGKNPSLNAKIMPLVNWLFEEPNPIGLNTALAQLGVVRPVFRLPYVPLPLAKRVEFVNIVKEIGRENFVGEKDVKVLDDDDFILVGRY

[3] = target: T3, Ec-DHDPS (Escherichia coli, UniProt P0A6L2); test: as above; assay type: biochemical
T3 construct: gene dapA; control enzyme; construct not described here
T3 sequence (P0A6L2 1-292): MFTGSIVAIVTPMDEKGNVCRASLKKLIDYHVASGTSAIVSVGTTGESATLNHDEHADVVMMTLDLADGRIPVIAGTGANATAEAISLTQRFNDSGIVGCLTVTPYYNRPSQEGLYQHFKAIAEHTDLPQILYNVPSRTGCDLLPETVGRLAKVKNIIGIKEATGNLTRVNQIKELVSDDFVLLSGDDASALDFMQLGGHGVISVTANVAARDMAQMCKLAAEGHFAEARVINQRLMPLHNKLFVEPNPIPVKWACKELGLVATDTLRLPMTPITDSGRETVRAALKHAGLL

[4] = target: T4, Av-DHDPR (Trichormus variabilis, UniProt Q3MFY8); test: microscale thermophoresis, label-free, single-site fit; assay type: binding
T4 construct: gene dapB; synthetic codon-optimised dapB in pRSET-A, His-tagged, E. coli BL21-DE3 pLysS, IMAC; homotetramer 139 kDa; monomer of 287 residues in crystal
T4 sequence (Q3MFY8 2-278): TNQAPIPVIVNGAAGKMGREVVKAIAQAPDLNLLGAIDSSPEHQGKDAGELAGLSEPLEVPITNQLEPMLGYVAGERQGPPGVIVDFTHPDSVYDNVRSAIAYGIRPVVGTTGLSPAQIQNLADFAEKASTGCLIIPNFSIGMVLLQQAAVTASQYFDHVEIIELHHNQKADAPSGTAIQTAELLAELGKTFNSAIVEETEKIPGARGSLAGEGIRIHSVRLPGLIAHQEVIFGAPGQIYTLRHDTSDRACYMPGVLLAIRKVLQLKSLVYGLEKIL

[5] = target: T1, Av-DHDPS; test: X-ray crystallography, […] Å; assay type: binding; settings: covalent; bound to Lys164 in active site; crystallised with 10 mM pyruvate, pH 6.5
[6] = target: dihydrodipicolinate reductase from Anabaena variabilis (Anabaena variabilis) (UniProt N8WZH2); test: AUC; sedimentation velocity, 20 °C, 40,000 rpm, absorbance at 230 nm, initial concentrations 0.1-7.0 μM (size-distribution analysis at 4.0 μM); single species, tetramer
[7] = target: dihydrodipicolinate synthase from Anabaena variabilis (Anabaena variabilis) (UniProt N8VIX7); test: as above

T1 sequence (Q3M723 entry or part of it): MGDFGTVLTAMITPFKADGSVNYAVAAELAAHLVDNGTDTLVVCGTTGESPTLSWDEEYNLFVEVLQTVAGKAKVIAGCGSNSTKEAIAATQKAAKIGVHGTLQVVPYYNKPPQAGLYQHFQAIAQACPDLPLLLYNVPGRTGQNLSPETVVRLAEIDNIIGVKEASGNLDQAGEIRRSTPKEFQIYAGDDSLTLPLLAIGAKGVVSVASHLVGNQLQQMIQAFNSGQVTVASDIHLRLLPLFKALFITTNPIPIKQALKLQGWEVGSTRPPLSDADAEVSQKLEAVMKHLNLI

Kd [4]: 100 ± 8.2 µM
Molecule: O=C(O)c1cccc(C(=O)O)n1 [2,6-pyridinedicarboxylate]

stoichiometry N [7]: 4
Molecule: dihydrodipicolinate synthase from Anabaena variabilis (from UniProt N8VIX7 1-299) (enzyme)

The next lines start with the molecule.

Molecule: NCCCC[C@H](N)C(=O)O [(S)-lysine]
IC50 [1]: 68 µM
IC50 [2]: 30 µM
IC50 [3]: 210 µM

Molecule: CC(=O)C(=O)O [pyruvate]
X-ray crystallography, 1.92 Å [5]: Shown in purple is the substrate pyruvate bonded to Lys164 in Av-DHDPS.

Molecule: dihydrodipicolinate reductase from Anabaena variabilis (from UniProt N8WZH2 1-273) (enzyme)
stoichiometry N [6]: 4
